# Source: patent US7163940B2, “Pyrazolopyridinyl pyrimidine therapeutic compounds” (SmithKline Beecham Corporation, priority 2000, dated 2007)
# System: HSV-1
# Assay: HSV-1 replication in infected Vero 76 cells, viral DNA hybridization capture assay
# Type: cell-based
# Conditions: Human alphaherpesvirus 1, Vero 76, HSV-1, Vero 76 cells, MOI=0.001, 40–48 hours incubation
# Method: Vero 76 cells were maintained in MEM with Earle's salts, L-glutamine, 8% FBS (Hyclone, A-1111-L) and 100 units/mL Penicillin-100 μg/mL Streptomycin. For assay conditions, FBS was reduced to 2%. Cells are seeded into 96-well tissue culture plates at a density of 5×10^4 cells/well after being incubated for 45 min at 37° C. in the presence of HSV-1 or HSV-2 (MOI=0.001). Test compounds are added to the wells and the plates are incubated at 37° C. for 40–48 hours. Cell lysates are prepared as follows: media was removed and replaced with 150 μL/well 0.2 N NaOH with 1% Igepal CA 630 or NP-40. Plates were incubated up to 14 days at room temperature in a humidified chamber to prevent evaporation. • (b) Preparation of Detection DNA.
# For the detection probe, a gel-purified, digoxigenin-labeled, […] PCR fragment of the HSV UL-15 sequence was utilized. PCR conditions included 0.5 μM primers, 180 μM dTP, 20 μM dUTP-digoxigenin (Boehringer Mannheim 1558706), 200 μM each of dATP, dCTP, and dGTP, 1×PCR Buffer II (Perkin Elmer), 2.5 mM MgCl2, 0.025 units/μL of AmpliTaq Gold polymerase (Perkin Elmer), and 5 ng of gel-purified HSV DNA per 100 μL. Extension conditions were 10 min at 95° C., followed by 30 cycles of 95° C. for 1 min, 55° C. for 30 sec, and 72° C. for 2 min. The amplification was completed with a 10-min incubation at 72° C. Primers were selected to amplify a 728 bp probe spanning a section of the HSV1 UL15 open reading frame (nucleotides 249–977). Single-stranded transcripts were purified with Promega M13 Wizard kits. The final product was mixed 1:1 with a mixture of 6 M GuSCN, 100 mM EDTA and 200 μg/mL herring sperm DNA and stored at 4° C. • (c) Preparation of Capture Plates.
# The capture DNA plasmid (HSV UL13 region in pUC) was linearized by cutting with Xba I, denatured for 15 min at 95° C. and diluted immediately into Reacti-Bind DNA Coating Solution (Pierce, 17250, diluted 1:1 with TE buffer, pH 8) at 1 ng/μL 75 μL/well were added to Corning (#3922 or 9690) white 96-well plates and incubated at room temperature for at least 4 hrs before washing twice with 300 μL/well 0.2×SSC/0.05% Tween-20 (SSC/T buffer). The plates were then incubated overnight at room temperature with 150 μL/well 0.2 N NaOH, 1% IGEPAL and 10 μg/mL herring sperm DNA. • (d) Hybridization.
# Twenty-seven (27) μL of cell lysate was combined with 45 μL of hybridization solution (final concentration: 3M GuSCN, 50 mM EDTA, 100 μg/ml salmon sperm DNA, 5× Denhardt's solution, 0.25×APE, and 5 ng of the digoxigenin-labeled detection probe). APE is 1.5 M NH4-acetate, 0.15 M ammonium phosphate, and 5 mM EDTA adjusted to pH 6.0. Mineral oil (50 μL) was added to prevent evaporation. The hybridization plates were incubated at 95° C. for 10 minutes to denature the DNA, then incubated at 42° C. overnight. The wells were washed 6× with 300 μL/well SSC/T buffer then incubated with 75 μL/well anti-digoxigenin-HRP-conjugated antibody (Boehringer Mannheim 1207733, 1:5000 in TE) for 30 min at room temperature. The wells were washed 6× with 300 μL/well with PBS/0.05% Tween-20 before 75 μL/well SuperSignal LBA substrate (Pierce) was added. The plates were incubated at room temperature for 30 minutes and chemiluminescence was measured in a Wallac Victor reader. • e) Results.
# The following results were obtained for HSV-1.
row,Structure (SMILES),IC50
1,"Fc1ccc(-c2nn3c(NC4CCCC4)cccc3c2-c2cc(COC3CCCCO3)nc(NC3CCCC3)n2)cc1 (stereo not drawn) [Example 16, N-Cyclopentyl-3-{2-(cyclopentylamino)-6-[(tetrahydro-2H-pyran-2-yloxy)methyl]-4-pyrimidinyl}-2-(4-fluorophenyl)pyrazolo[1,5-α]pyridin-7-amine]",40 µM
2,"Cc1cc(-c2c(-c3ccc(F)cc3)nn3c(N4CCN(C)CC4)cccc23)nc(NC2CCCC2)n1 [Example 15, N-Cyclopentyl-4-[2-(4-fluorophenyl)-7-(4-methyl-1-piperazinyl)pyrazolo[1,5-α]pyridin-3-yl]-6-methyl-2-pyrimidinamine]",5 µM
3,"CCCCNc1nccc(-c2c(-c3ccc(F)cc3)nn3c(N4CCN(C)CC4)cccc23)n1 [Example 35, N-Butyl-4-[2-(4-fluorophenyl)-7-(4-methyl-1-piperazinyl)pyrazolo[1,5-α]pyridin-3-yl]-2-pyrimidinamine]",0.9 µM
4,"Cc1cc(-c2c(-c3ccc(F)cc3)nn3c(NC4CCCC4)cccc23)nc(N(C)C)n1 [Example 81, N-Cyclopentyl-3-[2-(dimethylamino)-6-methylpyrimidin-4-yl]-2-(4-fluorophenyl)pyrazolo[1,5-α]pyridin-7-amine]",> 20 µM
5,"Fc1ccc(-c2nn3c(Cl)cccc3c2-c2ccnc(C3CC3)n2)cc1 [Example 76, 7-Chloro-3-(2-cyclopropylpyrimidin-4-yl)-2-(4-fluorophenyl)pyrazolo[1,5-α]pyridine]",> 20 µM
6,"Nc1nccc(-c2c(-c3ccc(F)cc3)nn3c(NC4CCCC4)cccc23)n1 [Example 12, 3-(2-Amino-4-pyrimidinyl)-N-cyclopentyl-2-(4-fluorophenyl)pyrazolo[1,5-α]pyridin-7-amine]",0.5 µM
7,"CN(C)Cc1cc(-c2c(-c3ccc(F)cc3)nn3c(NC4CCCC4)cccc23)nc(NC2CCCC2)n1 [Example 51, N-Cyclopentyl-3-{2-(cyclopentylamino)-6-[(dimethylamino)methyl]-4-pyrimidinyl}-2-(4-fluorophenyl)pyrazolo[1,5-α]pyridin-7-amine]",5 µM
8,"Fc1ccc(-c2nn3c(NC4CCCC4)cccc3c2-c2cc(-c3ccccc3)nc(NC3CCCC3)n2)cc1 [Example 82, N-Cyclopentyl-3-[2-(cyclopentylamino)-6-phenylpyrimidin-4-yl]-2-(4-fluorophenyl)pyrazolo[1,5-α]pyridin-7-amine]",> 20 µM
9,"CCCCNc1nccc(-c2c(-c3ccc(F)cc3)nn3c(N(C)C)cccc23)n1 [Example 34, 3-[2-(Butylamino)-4-pyrimidinyl]-2-(4-fluorophenyl)-N,N-dimethylpyrazolo[1,5-α]pyridin-7-amine]",0.3 µM
10,"Fc1ccc(-c2nn3c(NC4CCCC4)cccc3c2-c2cc(NC3CCCC3)ncn2)cc1 [Example 84, N-cyclopentyl-3-[6-(cyclopentylamino)pyrimidin-4-yl]-2-(4-fluorophenyl)pyrazolo[1,5-α]pyridin-7-amine]",1.3 µM
11,"CC(C)c1nccc(-c2c(-c3ccc(F)cc3)nn3c(Cl)cccc23)n1 [Example 77, 7-Chloro-2-(4-fluorophenyl)-3-(2-isopropylpyrimidin-4-yl)pyrazolo[1,5-α]pyridine]",> 20 µM
12,"COc1ccc(Nc2cccc3c(-c4ccnc(NC5CCCC5)n4)c(-c4ccc(F)cc4)nn23)cc1 [Example 23, 3-[2-(Cyclopentylamino)-4-pyrimidinyl]-2-(4-fluorophenyl)-N-(4-methoxyphenyl)pyrazo[1,5-α]pyridin-7-amine]",1 µM
13,"COC(=O)CNc1cccc2c(-c3cc(C)nc(NC4CCCC4)n3)c(-c3ccc(F)cc3)nn12 [Example 24, Methyl {[3-[2-(cyclopentylamino)-6-methyl-4-pyrimidinyl]-2-(4-fluorophenyl)pyrazolo[1,5-α]pyridin-7-yl]amino}acetate]",10 µM

# Continued, values first:
row,IC50,Structure (SMILES)
1,0.5 µM,"C=CCNc1cccc2c(-c3ccnc(NCCCC)n3)c(-c3ccc(F)cc3)nn12 [Example 54, N-Allyl-3-[2-(butylamino)-4-pyrimidinyl]-2-(4-fluorophenyl)pyrazolo[1,5-α]pyridin-7-amine]"
2,3 µM,"NCCNc1cccc2c(-c3cc(-c4ccccc4)nc(NC4CCCC4)n3)c(-c3ccc(F)cc3)nn12 [Example 20, N′-[3-[2-(Cyclopentylamino)-6-phenyl-4-pyrimidinyl]-2-(4-fluorophenyl)pyrazolo[1,5-α]pyridin-7-yl]-1,2-ethanediamine]"
3,1.2 µM,"CCCCNc1nccc(-c2c(-c3ccc(F)cc3)nn3c(NC)cccc23)n1 [Example 49, 3-[2-(Butylamino)-4-pyrimidinyl]-2-(4-fluorophenyl)-N-methylpyrazolo[1,5-α]pyridin-7-amine]"
4,0.3 µM,"Fc1ccc(-c2nn3c(NC4CCCC4)cccc3c2-c2ccnc(NC3CCCC3)n2)cc1 [Example 1, N-cyclopentyl-3-[2-(cyclopentylamino)-4-pyrimidinyl]-2-(4-fluorophenyl)pyrazolo[1,5-α]pyridin-7-amine]"
5,> 20 µM,"Fc1ccc(-c2nn3c(Br)cccc3c2-c2ccncc2)cc1 [Example 61, 7-Bromo-2-(4-fluorophenyl)-3-pyridin-4-ylpyrazolo[1,5-α]pyridine]"
6,0.2 µM,"CCCCNc1cccc2c(-c3ccnc(NC4CCCC4)n3)c(-c3ccc(F)cc3)nn12 [Example 6, N-Butyl-3-[2-(cyclopentylamino)-4-pyrimidinyl]-2-(4-fluorophenyl)pyrazolo[1,5-α]pyridin-7-amine]"
7,1.3 µM,"O=C(O)c1cc(-c2c(-c3ccc(F)cc3)nn3c(Cl)cccc23)nc(NC2CCCC2)n1 [Example 27, 6-[7-Chloro-2-(4-fluorophenyl)pyrazolo[1,5-α]pyridin-3-yl]-2-(cyclopentylamino)-4-pyrimidinecarboxylic acid]"
8,4 µM,"CCCCNc1cccc2c(-c3ccnc(NCCCn4ccnc4)n3)c(-c3ccc(F)cc3)nn12 [Example 44, N-Butyl-2-(4-fluorophenyl)-3-(2-{[3-(1H-imidazol-1-yl)propyl]amino}-4-pyrimidinyl)pyrazolo[1,5-α]pyridin-7-amine]"
9,1 µM,"C=CCNc1nccc(-c2c(-c3ccc(F)cc3)nn3c(NCCCC)cccc23)n1 [Example 39, 3-[2-(Allylamino)-4-pyrimidinyl]-N-butyl-2-(4-fluorophenyl)pyrazolo-[1,5-α]pyridin-7-amine]"
10,15 µM,"CCCCNc1cccc2c(-c3ccnc([S+](C)[O-])n3)c(-c3ccc(F)cc3)nn12 (stereo not drawn) [Example 37, N-Butyl-2-(4-fluorophenyl)-3-[2-(methylsulfinyl)-4-pyrimidinyl]-pyrazolo[1,5-α]pyridin-7-amine]"
11,0.6 µM,"CCCCNc1cccc2c(-c3ccnc(NC4CC4)n3)c(-c3ccc(F)cc3)nn12 [Example 4, N-Butyl-3-[2-(cyclopropylamino)-4-pyrimidinyl]-2-(4-fluorophenyl)-pyrazolo[1,5-α]pyridin-7-amine]"
12,15 µM,"CCCCNc1cccc2c(-c3ccnc(N4CCOCC4)n3)c(-c3ccc(F)cc3)nn12 [Example 40, N-Butyl-2-(4-fluorophenyl)-3-[2-(4-morpholinyl)-4-pyrimidinyl]pyrazolo[1,5-α]pyridin-7-amine]"
13,0.2 µM,"CCCCNc1nccc(-c2c(-c3ccc(F)cc3)nn3c(NC4CC4)cccc23)n1 [Example 33, 3-[2-(Butylamino)-4-pyrimidinyl]-N-cyclopropyl-2-(4-fluorophenyl)pyrazolo[1,5-α]pyridin-7-amine]"
14,0.95 µM,"CCCCNc1nccc(-c2c(-c3ccc(F)cc3)nn3c(-c4ccco4)cccc23)n1 [Example 78, N-Butyl-4-[2-(4-fluorophenyl)-7-(2-furyl)pyrazolo[1,5-α]pyridin-3-yl]pyrimidin-2-amine]"
